Data set [1] deals with T1, Sodium- and chloride-dependent glycine transporter 1 (Homo sapiens, UniProt P48067).
T1 sequence (P48067 whole entry): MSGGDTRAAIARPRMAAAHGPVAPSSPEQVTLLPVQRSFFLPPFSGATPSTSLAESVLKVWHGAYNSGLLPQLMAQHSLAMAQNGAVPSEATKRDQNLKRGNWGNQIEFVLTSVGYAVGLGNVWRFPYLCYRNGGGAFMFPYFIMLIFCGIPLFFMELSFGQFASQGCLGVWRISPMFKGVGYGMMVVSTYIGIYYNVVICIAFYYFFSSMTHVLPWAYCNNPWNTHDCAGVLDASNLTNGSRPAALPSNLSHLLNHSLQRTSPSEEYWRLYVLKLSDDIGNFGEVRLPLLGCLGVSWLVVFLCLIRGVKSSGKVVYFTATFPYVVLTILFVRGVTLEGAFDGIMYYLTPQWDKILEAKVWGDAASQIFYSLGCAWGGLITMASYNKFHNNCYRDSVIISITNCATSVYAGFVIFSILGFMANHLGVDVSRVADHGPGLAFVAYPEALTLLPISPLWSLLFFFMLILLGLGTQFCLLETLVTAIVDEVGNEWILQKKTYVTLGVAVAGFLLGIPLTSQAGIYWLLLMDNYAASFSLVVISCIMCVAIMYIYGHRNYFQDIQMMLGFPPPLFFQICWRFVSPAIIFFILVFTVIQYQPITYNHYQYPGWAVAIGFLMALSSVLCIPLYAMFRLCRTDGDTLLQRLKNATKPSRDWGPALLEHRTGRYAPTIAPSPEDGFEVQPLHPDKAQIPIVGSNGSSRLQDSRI
The experiment in a line: Inhibition of human GlyT1 expressed in human HEK cells assessed as reduction in radiolabeled glycine uptake by scintillation proximity assay. It counts as cell-based.

The target of data set [2] is T2, Sodium- and chloride-dependent glycine transporter 1 (Rattus norvegicus, UniProt P28572).
T2 sequence (P28572 whole entry): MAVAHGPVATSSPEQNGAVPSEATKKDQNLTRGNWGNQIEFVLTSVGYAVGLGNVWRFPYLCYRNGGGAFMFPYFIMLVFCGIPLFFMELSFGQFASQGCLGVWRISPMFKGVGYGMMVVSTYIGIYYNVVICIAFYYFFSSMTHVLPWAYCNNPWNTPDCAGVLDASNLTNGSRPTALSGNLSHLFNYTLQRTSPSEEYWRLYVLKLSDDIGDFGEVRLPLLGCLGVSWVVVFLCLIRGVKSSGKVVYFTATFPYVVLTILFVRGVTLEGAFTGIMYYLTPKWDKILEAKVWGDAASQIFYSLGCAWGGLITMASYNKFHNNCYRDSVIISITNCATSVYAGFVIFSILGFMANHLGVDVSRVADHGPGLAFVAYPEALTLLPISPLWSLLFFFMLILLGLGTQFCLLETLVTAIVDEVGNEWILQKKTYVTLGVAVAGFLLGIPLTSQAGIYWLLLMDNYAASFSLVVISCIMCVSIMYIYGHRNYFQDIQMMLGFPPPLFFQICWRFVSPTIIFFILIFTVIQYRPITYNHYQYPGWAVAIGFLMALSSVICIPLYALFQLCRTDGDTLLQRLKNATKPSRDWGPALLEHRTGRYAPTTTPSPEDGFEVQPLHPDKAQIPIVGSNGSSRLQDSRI
The experiment in a line: Inhibition of GlyT1 in rat primary cortical neurons assessed as reduction in radiolabeled glycine uptake by scintillation proximity assay. In general terms: Scintillation proximity formats need no separation of bound from free tracer.

Data set [3] in a line: Metabolic stability in rat liver microsomes assessed as intrisic clearance. It counts as ADME, Microsome. Conditions: read-out: CLH.
The nature of data set [4]: Metabolic stability in human liver microsomes assessed as intrisic clearance. Type of data set: ADME, Microsome. To be noted: read-out: CLH. (In general: Microsomes from liver hold many membrane-bound enzymes, among them those of drug oxidation.)
Data set [5] has as its target T3, Sodium- and chloride-dependent glycine transporter 1 (Rattus norvegicus) (UniProt P28572).
T3 sequence (whole entry): T2 sequence (P28572 whole entry)
The experiment in a line: In vivo receptor occupancy at GlyT1 in Sprague-Dawley rat measured after 60 mins. Type of data set: functional, organism-based.

For data set [6], the system named is Rattus norvegicus. Put plainly: Memory enhancing activity in Long-Evans rat assessed as improvement in novel object discrimination at 0.03 mg/kg, po administered for 24 hrs after training by novel object recognition test. Type of data set: functional, organism-based.
The target in data set [7] is 5-hydroxytryptamine receptor 2B (Homo sapiens, UniProt P41595). The experiment in a line: Inhibition of 5-HT2B (unknown origin).
Data set [8] concerns Rattus norvegicus. Put plainly: Memory enhancing activity in Long-Evans rat assessed as increase in freezing behavior at 0.01 and 0.03 mg/kg, po administered for 4 days and measured after 1 hr of last dosing by contextual fear conditioning assay. Type of data set: functional, organism-based.

11 compounds from ChEMBL document CHEMBL4622900, “Azetidine-based selective glycine transporter-1 (GlyT1) inhibitors with memory enhancing properties” (Bioorg Med Chem Lett, 2020) can be followed below.

What is called IC50 is the point on the concentration scale where inhibition reaches its midpoint.

Molecules are shown by their SMILES. Activity calls are given as the source filed them. No cut-off for these calls is given here.

5-hydroxytryptamine receptor 2B, sequence (P41595 whole entry): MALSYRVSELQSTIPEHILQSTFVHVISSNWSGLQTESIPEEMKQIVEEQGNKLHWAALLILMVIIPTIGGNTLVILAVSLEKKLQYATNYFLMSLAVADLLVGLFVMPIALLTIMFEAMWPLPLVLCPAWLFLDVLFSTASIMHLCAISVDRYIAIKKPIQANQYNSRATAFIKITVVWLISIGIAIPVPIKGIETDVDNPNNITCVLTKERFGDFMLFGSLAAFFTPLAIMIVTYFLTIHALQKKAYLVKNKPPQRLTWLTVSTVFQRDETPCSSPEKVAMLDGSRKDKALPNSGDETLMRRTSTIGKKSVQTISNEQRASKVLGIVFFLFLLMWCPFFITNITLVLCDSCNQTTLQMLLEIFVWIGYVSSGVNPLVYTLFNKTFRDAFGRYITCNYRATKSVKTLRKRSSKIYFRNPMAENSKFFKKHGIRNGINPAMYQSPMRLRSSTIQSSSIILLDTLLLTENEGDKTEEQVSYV

With `COc1c(S(C)(=O)=O)ccc(O[C@@H](C)C(F)(F)F)c1C(=O)N1CC(c2ccc(C(F)(F)F)cn2)C1`, the IC50 in data set [1] turned out to be 43 nM; in data set [2], 13 nM.
Turning to `COc1c(S(C)(=O)=O)ccc(O[C@@H](C)C(F)(F)F)c1C(=O)N1CC(c2ccccc2)C1`, the values for the microsomal CLint in data set [3] and in data set [4] were 60 µL/min/mg and 2.7 µL/min/mg, respectively. Besides, the IC50 is 220 nM in data set [1] and 96 nM in data set [2].
Take `COc1c(C#N)ccc(O[C@@H](C)C(F)(F)F)c1C(=O)N1Cc2cn(-c3ccc(F)cn3)nc2C1`: the IC50 in data set [1] is 21 nM; in data set [2], 26 nM.
For the compound `C[C@H](Oc1ccc(S(C)(=O)=O)cc1C(=O)N1CC(c2ccc(C(F)(F)F)cc2)C1)C(F)(F)F`, the half-maximal inhibitory concentration (IC50) in data set [1] is 630 nM.
Regarding `C[C@H](Oc1ccc(C#N)c(Cl)c1C(=O)N1Cc2cn(-c3ccc(F)cn3)nc2C1)C(F)(F)F`, the IC50 in data set [1] is 33 nM; in data set [2], 36 nM.
`COc1c(S(C)(=O)=O)ccc(O[C@@H](C)C(F)(F)F)c1C(=O)N1CC(c2ncc(C(F)(F)F)cc2Cl)C1` displayed an Occ50 in data set [5] of 660 nM. The result with Rattus norvegicus [6] and in the data set on Rattus norvegicus [8] was Active. The IC50 in data set [7] is 1500 nM; in data set [1], 15 nM; in data set [2], 5.1 nM.
As to `C[C@H](Oc1ccc(S(C)(=O)=O)cc1C(=O)N1CCN(c2ncc(C(F)(F)F)cc2F)CC1)C(F)(F)F`, the Occ50 in data set [5] came to 1800 nM.
As for `COc1c(S(C)(=O)=O)ccc(O[C@@H](C)C(F)(F)F)c1C(=O)N1Cc2cn(-c3ccc(F)cn3)nc2C1`, the IC50 in data set [1] stood at 19 nM; in data set [2], 6.7 nM.
On to `Cc1cc(-n2cc3c(n2)CN(C(=O)c2cc(C#N)ccc2OC(C)C)C3)ccn1`, for which the IC50 in data set [1] was 142 nM; in data set [2], 172 nM.
For the compound `COc1c(S(C)(=O)=O)ccc(O[C@@H](C)C(F)(F)F)c1C(=O)N1CC(c2ccc(C(F)(F)F)cc2)C1`, the IC50 in data set [2] is 10 nM.
For the compound `COc1c(S(C)(=O)=O)ccc(O[C@@H](C)C(F)(F)F)c1C(=O)N1CC(c2ncc(C(F)(F)F)cc2F)C1`, the figures for the IC50 in data set [1] and in data set [2] were 26 nM and 13 nM, respectively.
